Assay in all cases: NCI anticancer screen, dose series, 48 h
In assay [1] the test system is A498 renal.
Assay [2] concerns HOP-92 NSCLC.
For assay [3], the system named is NCI-H460 lung.
For assay [4], the system named is NCI/ADR-RES ovarian.
Assay [5] concerns OVCAR-5 ovarian.
Assay [6] concerns SF-295 CNS.
Assay [7] relates to SF-539 CNS.
Assay [8] relates to SK-MEL-2 melanoma.
Assay [9] concerns T-47D breast.
Assay [10] concerns TK-10 renal.
Assay [11] concerns UACC-257 melanoma.
For assay [12], the system named is HCC-2998 colon.

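Method: 48-hour compound exposure of cells in 96-well plates, five concentrations, linear interpolation of endpoints. At the TGI there is no net growth.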

Consider `CCOC(=O)c1cnc(-n2[nH]c3c(c2=O)CCCC3)[nH]c1=O`, for which the TGI is > 100 µM in [1]; 57.6 µM in [2]; > 100 µM in assay [3]; > 100 µM in assay [4]; > 100 µM in assay [5]; > 100 µM in assay [6]. For the same compound, the TGI in assay [7], in assay [8], in [9], in assay [10] and in [11] was > 100 µM in each case.
With `S=c1sc2nc(Cl)nc(Cl)c2s1`, the TGI was 32 µM in assay [1]; 31.6 µM in assay [12]; 17.4 µM in assay [2]; 30.8 µM in [3]; 38.2 µM in [4]; 29.5 µM in [5]. Besides, the TGI in assay [6] is 31.7 µM; in assay [7] it was 41.6 µM; in assay [8], 23.8 µM; in assay [9] it was 31.9 µM; in assay [10], 26.5 µM; in assay [11], 31.9 µM.
Consider `Cc1c(C)c(S(=O)(=O)N(CCCN)OCCCN)c(C)c2c1OC(C)(C)C2`, for which the TGI is 42 µM in assay [1]; 40.9 µM in assay [12]; > 100 µM in assay [3]; > 100 µM in assay [4]; 61.6 µM in assay [5]; 98.9 µM in [6]. Further, the TGI is 26.7 µM in assay [8], > 100 µM in assay [9], > 100 µM in assay [10] and 89.3 µM in assay [11].
As for `Clc1nc2n(c1/C=C/c1cccs1)CCS2`, the TGI in assay [1] was 57.9 µM; in assay [12], > 100 µM; in assay [4] it was > 100 µM; in assay [5], > 100 µM; in [6], > 100 µM; in assay [8], > 100 µM. For the same compound, the TGI is 69.3 µM in [9], > 100 µM in assay [10] and > 100 µM in assay [11].
Turning to `Cn1c2c(c3ccccc31)CC(=S)N1CCCC(CC2O)C1` (configuration not stated), the TGI in [1], in assay [12], in assay [2], in assay [3], in assay [4] and in assay [6] was > 100 µM each time. Moreover, the TGI in assay [7], in assay [8], in assay [9], in assay [10] and in [11] was > 100 µM throughout.
With `Cc1ccsc1/C=N/Nc1nncc2ccccc12`, the TGI in [1], in assay [12], in assay [2], in [4], in [5] and in [6] was > 100 µM in each case. Besides, the TGI is 92 µM in assay [8], > 100 µM in assay [9], > 100 µM in assay [10] and > 100 µM in [11].
`C[C@]12[C@@H]3CC[C@H]1[C@@H](OC(=O)Nc1cc([N+](=O)[O-])cc([N+](=O)[O-])c1)C(=O)N2CC3`: the TGI in [1], in [12], in [2], in assay [3], in [4] and in assay [5] was > 100 µM each time. Moreover, the TGI in assay [6], in assay [8], in [9], in [10] and in assay [11] was > 100 µM each time.
Turning to `Nc1nc(Cl)c2nnn(CC3CCC(CO)C3)c2n1` (configuration not stated), the TGI in assay [1], in assay [12], in assay [2], in [4], in [5] and in [6] was > 100 µM throughout. Also, the TGI in assay [7], in assay [8], in assay [9], in [10] and in assay [11] was > 100 µM throughout.
As to `O=C(O)c1oc(C(=O)O)c(C(=O)O)c1C(=O)O`, the TGI in assay [1], in assay [2], in [3], in assay [4], in assay [5] and in assay [6] was > 100 µM throughout. Further, the TGI in assay [8], in [9], in [10] and in assay [11] was > 100 µM each time.
Turning to `O=C(Nc1ccccc1F)c1cc2ccc(O)cc2oc1=Nc1cccc(C(F)(F)F)c1`, the TGI in assay [1] is 38.3 µM; in [12], > 100 µM; in assay [3], > 100 µM; in [4], 9.93 µM; in assay [5], > 100 µM; in assay [6], > 100 µM. Besides, the TGI in assay [7] is 22.3 µM; in assay [8] it was 36 µM; in assay [9] it was 15.8 µM; in [11], > 100 µM.
On to `N#CC(Cc1ccccc1Br)N(CCC1=CCCCC1)C(c1ccccc1)c1ccccc1` (configuration not stated), for which the TGI in assay [1], in assay [12], in assay [2], in assay [3], in [4] and in [5] was > 100 µM in each case. Also, the TGI in [6], in assay [8], in [9], in [10] and in assay [11] was > 100 µM in each case.
For `NNc1[nH]c(=S)[nH]c1C(N)=O`, the TGI in assay [1], in assay [12], in [3], in assay [4], in assay [5] and in [6] was > 100 µM each time. The TGI in assay [7], in [8], in [9], in assay [10] and in assay [11] was > 100 µM throughout.
As for `COc1cc(/C=C/c2cc(/C=C/c3ccc(O)c(OC)c3)oc(=O)c2)ccc1O`, the TGI in [1] is 13.6 µM; in [2] it was 32.6 µM; in assay [3], 7.63 µM; in assay [4] it was 26.1 µM; in assay [5] it was > 100 µM; in assay [6] it was 19.4 µM. The TGI was > 100 µM in [7]; > 65.9 µM in [8]; 4.86 µM in assay [9]; > 30 µM in [10]; > 29.6 µM in assay [11].
On to `C/C=C/C(=O)N1C(=O)OC[C@@H]1c1ccccc1`, for which the TGI in assay [1] was 45.7 µM; in assay [12], 41.3 µM; in [2], 37.2 µM; in assay [4], 44.4 µM; in assay [5], 31.7 µM; in assay [6] it was > 100 µM. Further, the TGI is 38.5 µM in assay [7]; 36.9 µM in assay [8]; 36.8 µM in assay [9]; 32.2 µM in assay [10]; 39.9 µM in assay [11].
Turning to `O=C1/C(=C/c2ccco2)N=C(c2ccccc2)N1c1cc2cc(Sc3ccccc3)ccc2[nH]1`, the TGI in assay [1], in [2], in assay [4], in [5], in assay [7] and in assay [8] was > 25 µM each time. For the same compound, the TGI in [9] is > 25 µM.
On to `COc1ccc([C@@]23OC[C@@H]4[C@@H](OC[C@@H]42)c2cc(OC)c(OC)cc23)cc1OC`, for which the TGI in assay [1], in [12], in assay [3], in assay [4], in assay [5] and in assay [6] was > 100 µM each time. The TGI in [7], in assay [8], in assay [9] and in [10] was > 100 µM in each case.
`C=CC[C@@H]1C(=O)[C@@]2(O[Si](C(C)C)(C(C)C)C(C)C)CC[C@@H]1C[C@H]2NC(=O)OCC(Cl)(Cl)Cl`: the TGI in [1] was > 100 µM; in assay [12], > 100 µM; in [3], > 100 µM; in assay [4] it was > 100 µM; in assay [5], > 100 µM; in assay [6], 85.8 µM. Moreover, the TGI in assay [8], in [9], in [10] and in assay [11] was > 100 µM throughout.
In the case of `CCc1c(Cc2cc(C)cc(C)c2)n2c(nc1=O)SCC2CBr` (configuration not stated), the TGI in assay [1], in assay [12], in assay [2], in assay [3], in assay [4] and in assay [5] was > 50 µM in each case. Besides, the TGI in [7], in [8], in assay [9], in assay [10] and in assay [11] was > 50 µM in each case.
With `COc1cc2c(cc1OC)C(N)CC2=O` (configuration not stated), the TGI in assay [1], in [12], in assay [2], in assay [4], in [5] and in [6] was > 100 µM in each case. Also, the TGI in assay [7], in [8], in assay [9], in assay [10] and in [11] was > 100 µM each time.
As for `CC(=O)OC1CC[C@]2(C)C3CC[C@@]4(C)C(CCC4[C@H](C)CCCC(C)C)[C@@H]3CCC2(Br)C1` (some centres not stated), the TGI is 18 µM in assay [1]; > 50 µM in assay [12]; > 50 µM in assay [2]; > 50 µM in [3]; > 50 µM in [4]; > 50 µM in assay [5]. In addition, the TGI was > 50 µM in assay [6]; 18.5 µM in assay [7]; > 50 µM in assay [9]; 26.5 µM in [10]; > 50 µM in assay [11].
For the compound `NC(=Nc1ccc(O)cc1)S(=O)O`, the TGI in assay [1], in assay [12], in assay [2], in assay [4], in [5] and in assay [6] was > 100 µM throughout. In addition, the TGI in assay [7], in [8], in assay [9], in [10] and in assay [11] was > 100 µM each time.
For `Cc1ccc(S(=O)(=O)N2CCCC2C(=O)O[C@H]2CC[C@H]3CC=C[C@H]32)cc1` (some centres not stated), the TGI was 89 µM in assay [1]; > 100 µM in assay [12]; 91.4 µM in assay [3]; 77.2 µM in assay [4]; > 100 µM in assay [5]; > 100 µM in [6]. For the same compound, the results for the TGI in assay [9] and in [11] were > 100 µM and 67.4 µM, respectively.
With `Cc1ccc(/C=C/C(=O)c2cc(CN(C)C)c(O)c(CN(C)C)c2)cc1`, the TGI in [1] is 95.5 µM; in [12] it was 46.2 µM; in assay [2] it was 70.8 µM; in assay [3] it was 26.1 µM; in assay [4] it was 79.1 µM; in assay [5], > 100 µM. Moreover, the TGI in [6] was 27.7 µM; in [7], 34.9 µM; in [9], > 100 µM; in [10], > 100 µM; in [11] it was 27.4 µM.
Regarding `COc1ccc(/C=C2\N=C(NN)N=C2Cl)cc1`, the TGI in assay [1], in [12], in assay [2], in assay [4], in assay [5] and in assay [6] was > 100 µM each time. The TGI in assay [7], in assay [8], in [9], in assay [10] and in [11] was > 100 µM in each case.
Turning to `OC1CN2Cc3cc4c(cc3[C@]13C=C[C@@H](O)CC23)OCO4` (some centres not stated), the TGI in assay [1] was > 100 µM; in assay [2], 86.8 µM; in assay [3], 45.6 µM; in assay [4], > 100 µM; in [5] it was > 100 µM; in assay [6] it was > 100 µM. Also, the TGI in [7] was > 100 µM; in assay [8], > 100 µM; in assay [9], 31.2 µM; in assay [10], 93.3 µM; in assay [11], 34.9 µM.
Take `COc1c(O)c2c(=O)cc(OC)c3c4c(OC)cc(=O)c5c(O)c(OC)c6c(c(c1C(C(C)=O)C6C(C)O)c23)c54` (configuration not stated): the TGI turned out to be 28.3 µM in [1]; 1.06 µM in assay [12]; 1.4 µM in assay [2]; 0.688 µM in [3]; 1.58 µM in assay [4]; 1.28 µM in assay [5]. For the same compound, the TGI in assay [6] was found to be 2.05 µM; in assay [7] it was 1.87 µM; in [9] it was 1.64 µM; in assay [10], 3.65 µM; in assay [11], 1.39 µM.

The record behind these values is PubChem BioAssay (NCI).
